Patent US20250288573A1 (H. LEE MOFFITT CANCER CENTER AND RESEARCH INSTITUTE, INC., priority 2018, published 2025)
Where two headings read alike, the source gives them in different places.

Target: T1, CRBN (Homo sapiens, UniProt Q96SW2)
T1 construct: endogenous in cells; host or cells: primary human T cells / CD8+ T cells from peripheral blood
Assay: Western blot for expression of CRBN relative to vinculin in human T cells (CRBN degradation)
Type: cell-based
Conditions: for remaining activity at 10 µM / remaining activity at 0.01 µM: read-out: Relative Density of CRBN (% of DMSO); for remaining activity at 0.01 µM: 24 h; for CRBN Degradation ** (WB): grade (+) to (++++) or words, key not given
From the text: Bortez=bortezomib; MG132=proteasome inhibitor; MLN4924=NEDD8 inhibitor.
This assay is a standard Western blot assay for expression of CRBN relative to vinculin.
[…] 0.1 percent DMSO was used as a vehicle control.

T1 sequence (Q96SW2 whole entry): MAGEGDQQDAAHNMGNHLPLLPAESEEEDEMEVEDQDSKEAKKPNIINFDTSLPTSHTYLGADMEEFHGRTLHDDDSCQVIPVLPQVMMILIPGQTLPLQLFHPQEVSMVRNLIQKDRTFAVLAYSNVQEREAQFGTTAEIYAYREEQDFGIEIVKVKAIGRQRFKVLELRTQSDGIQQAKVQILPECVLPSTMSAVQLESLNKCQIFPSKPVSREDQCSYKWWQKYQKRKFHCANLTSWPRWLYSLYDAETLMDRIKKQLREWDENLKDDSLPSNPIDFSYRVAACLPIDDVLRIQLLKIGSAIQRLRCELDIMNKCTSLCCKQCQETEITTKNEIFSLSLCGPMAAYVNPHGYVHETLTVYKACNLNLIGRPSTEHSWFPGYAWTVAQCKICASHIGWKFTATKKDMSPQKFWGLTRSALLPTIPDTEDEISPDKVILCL

SMILES | remaining activity at 10 µM (10uM) [%] | remaining activity at 0.01 µM (10nM, human T cells, 24 hours) [%] | remaining activity at 0.01 µM [%] | remaining activity at 10 µM [%] | CRBN Degradation ** (WB)
Cc1nc2cccc(NCc3cccc(CNc4cccc5nc(C)n(C6CCC(=O)NC6=O)c(=O)c45)n3)c2c(=O)n1C1CCC(=O)NC1=O (stereo not drawn) [MA10-126, 3,3′-(((Pyridine-2,6-diylbis(methylene))bis(azanediyl))bis(2-methyl-4-oxoquinazoline-5,3(4H)-diyl))bis(piperidine-2,6-dione)] | 61.1 | 54.2 |  |  | 
Cc1nc2c(NCc3ccc(CNc4cccc5c(=O)n(C6CCC(=O)NC6=O)c(C)nc45)cc3)cccc2c(=O)n1C1CCC(=O)NC1=O (stereo not drawn) [XS01-030, 3,3′-(((1,4-Phenylenebis(methylene))bis(azanediyl))bis(2-methyl-4-oxoquinazoline-8,3(4H)-diyl))bis(piperidine-2,6-dione)] | 93 | 12.1 |  |  | 
Cc1nc2cccc(CCCOCCOCCCc3cccc4nc(C)n(C5CCC(=O)NC5=O)c(=O)c34)c2c(=O)n1C1CCC(=O)NC1=O (stereo not drawn) [MA10-120, 3,3′-(((Ethane-1,2-diylbis(oxy))bis(propane-3,1-diyl))bis(2-methyl-4-oxoquinazoline-5,3(4H)-diyl))bis(piperidine-2,6-dione)] |  |  | 56.7 | 82.8 | 
Cc1nc2cccc(NC(=O)CCCCCCC(=O)Nc3cccc4nc(C)n(C5CCC(=O)NC5=O)c(=O)c34)c2c(=O)n1C1CCC(=O)NC1=O (stereo not drawn) [MA10-077, N1,N8-bis(3-(2,6-dioxopiperidin-3-yl)-2-methyl-4-oxo-3,4-dihydroquinazolin-5-yl)octanediamide] | 74.3 | 139 |  |  | 
O=C1CCC(NC(=O)c2cccc(NC(=O)CCCCCCC(=O)Nc3cccc(C(=O)NC4CCC(=O)NC4=O)c3)c2)C(=O)N1 (stereo not drawn) [XS01-050, N^1,N^8-Bis(3-((2,6-dioxopiperidin-3-yl)carbamoyl)phenyl)octanedimide] | 20 | 168 |  |  | 
O=C1C[C@H](NC(=O)c2cccc(NC(=O)CCCCCCC(=O)Nc3cccc(C(=O)N[C@H]4CC(=O)NC4=O)c3)c2)C(=O)N1 [XS01-066, N^1,N^8-Bis(3-(((S)-2,5-dioxopyrrolidin-3-yl)carbamoyl)phenyl)octanediamide] | 157 |  |  |  | 
Cc1nc2cccc(CCc3ccc(CCc4cccc5nc(C)n(C6CCC(=O)NC6=O)c(=O)c45)cc3)c2c(=O)n1C1CCC(=O)NC1=O (stereo not drawn) [XS01-038, 3,3′-((1,4-Phenylenebis(ethane-2,1-diyl))bis(2-methyl-4-oxoquinazoline-5,3(4H)-diyl))bis(piperidine-2,6-dione)] | 133 | 29 |  |  | No degradation
O=C1CCC(N2Cc3c(NC(=O)CCc4cn(CC(=O)Nc5cccc6c5CN(C5CCC(=O)NC5=O)C6=O)nn4)cccc3C2=O)C(=O)N1 (stereo not drawn) [XS01-113, N-(2-(2,6-dioxopiperidin-3-yl)-1-oxoisoindolin-4-yl)-3-(1-(2-((2-(2,6-dioxopiperidin-3-yl)-1-oxoisoindolin-4-yl)amino)-2-oxoethyl)-1H-1,2,3-triazol-4-yl)propanamide] | 106 | 225 |  |  | 
O=C1CCC(N2Cc3c(NC(=O)CCCc4cn(CC(=O)Nc5cccc6c5CN(C5CCC(=O)NC5=O)C6=O)nn4)cccc3C2=O)C(=O)N1 (stereo not drawn) [XS01-109, N-(2-(2,6-Dioxopiperidin-3-yl)-1-oxoisoindolin-4-yl)-4-(1-(2-((2-(2,6-dioxopiperidin-3-yl)-1-oxoisoindolin-4-yl)amino)-2-oxoethyl)-1H-1,2,3-triazol-4-yl)butanamide] | 132 | 213 |  |  | 
O=C1CCC(N2Cc3c(CCCCCC(=O)Nc4cccc5c4CN(C4CCC(=O)NC4=O)C5=O)cccc3C2=O)C(=O)N1 (stereo not drawn) [EC2-109, N,6-bis(2-(2,6-Dioxopiperidin-3-yl)-1-oxoisoindolin-4-yl)hexanamide] | 9.84 | 97.5 |  |  | 
O=C1CCC(N2Cc3c(NC(=O)CCCc4cn(CC(=O)Nc5cccc6c5C(=O)N(C5CCC(=O)NC5=O)C6=O)nn4)cccc3C2=O)C(=O)N1 (stereo not drawn) [XS01-122, 4-(1-(2-((2-(2,6-Dioxopiperidin-3-yl)-1,3-dioxoisoindolin-4-yl)amino)-2-oxoethyl)-1H-1,2,3-triazol-4-yl)-N-(2-(2,6-dioxopiperidin-3-yl)-1-oxoisoindolin-4-yl)butanamide] | 151 | 255 |  |  | 
O=C1CCC(N2Cc3c(NC(=O)CCc4cn(CC(=O)Nc5cccc6c5C(=O)N(C5CCC(=O)NC5=O)C6=O)nn4)cccc3C2=O)C(=O)N1 (stereo not drawn) [XS01-125, 3-(1-(2-((2-(2,6-Dioxopiperidin-3-yl)-1,3-dioxoisoindolin-4-yl)amino)-2-oxoethyl)-1H-1,2,3-triazol-4-yl)-N-(2-(2,6-dioxopiperidin-3-yl)-1-oxoisoindolin-4-yl)propanamide] | 153 | 196 |  |  | 
O=C1CCC(N2Cc3c(CCCCCCCCCC(=O)Nc4cccc5c4CN(C4CCC(=O)NC4=O)C5=O)cccc3C2=O)C(=O)N1 (stereo not drawn) [EC2-102, N,10-bis(2-(2,6-Dioxopiperidin-3-yl)-1-oxoisoindolin-4-yl)decanamide] | 25.2 | 58.9 |  |  | 
Cc1nc2cccc(NC(=O)CCCCCC(=O)Nc3cccc4nc(C)n(C5CCC(=O)NC5=O)c(=O)c34)c2c(=O)n1C1CCC(=O)NC1=O (stereo not drawn) [MA10-121, N1,N7-bis(3-(2,6-Dioxopiperidin-3-yl)-2-methyl-4-oxo-3,4-dihydroquinazolin-5-yl)heptanediamide] | 72.6 | 56.5 |  |  | 
Cc1nc2cccc(NC(=O)CCCCC(=O)Nc3cccc4nc(C)n(C5CCC(=O)NC5=O)c(=O)c34)c2c(=O)n1C1CCC(=O)NC1=O (stereo not drawn) [MA10-088, N1,N6-bis(3-(2,6-Dioxopiperidin-3-yl)-2-methyl-4-oxo-3,4-dihydroquinazolin-5-yl)adipamide] | 58.1 | 135 |  |  | 
O=C1CCC(N2Cc3ccc(NC(=O)CCCC(=O)Nc4ccc5c(c4)C(=O)N(C4CCC(=O)NC4=O)C5)cc3C2=O)C(=O)N1 (stereo not drawn) [EC2-060, N^1,N^5-bis(2-(2,6-Dioxopiperidin-3-yl)-3-oxoisoindolin-5-yl)glutaramide] | 40.3 | 48.4 |  |  | No degradation
O=C1CCC(N2Cc3c(C#CCCCCCCCC(=O)Nc4cccc5c4CN(C4CCC(=O)NC4=O)C5=O)cccc3C2=O)C(=O)N1 (stereo not drawn) [EC2-100, N,10-bis(2-(2,6-Dioxopiperidin-3-yl)-1-oxoisoindolin-4-yl)dec-9-ynamide] | 32.2 | 55.5 |  |  | 
Cc1nc2cccc(NC(=O)CCc3cn(CC(=O)Nc4cccc5nc(C)n(C6CCC(=O)NC6=O)c(=O)c45)nn3)c2c(=O)n1C1CCC(=O)NC1=O (stereo not drawn) [XS01-132, N-(3-(2,6-dioxopiperidin-3-yl)-2-methyl-4-oxo-3,4-dihydroquinazolin-5-yl)-3-(1-(2-((3-(2,6-dioxopiperidin-3-yl)-2-methyl-4-oxo-3,4-dihydroquinazolin-5-yl)amino)-2-oxoethyl)-1H-1,2,3-triazol-4-yl)propanamide] | 98.3 | 199 |  |  | 
O=C1CCC(N2Cc3ccc(NC(=O)CCCCC(=O)Nc4ccc5c(c4)C(=O)N(C4CCC(=O)NC4=O)C5)cc3C2=O)C(=O)N1 (stereo not drawn) [EC2-066] | 189 |  |  |  | 
O=C1CC[C@H](N2Cc3c(CCCOCCOCCCc4cccc5c4CN([C@H]4CCC(=O)NC4=O)C5=O)cccc3C2=O)C(=O)N1 [XS01-011, (3S,3'S)-3,3′-(((Ethane-1,2-diylbisbis(oxy))bisbis(propane-3,1-diyl))bisbis(1-oxoisoindoline-4,2-diyl))bisbis(piperidine-2,6-dione)] | 38.1 | 3.42 |  |  | 
O=C1C[C@H](NC(=O)CCCCCCCCC(=O)N[C@H]2CC(=O)NC2=O)C(=O)N1 [XS01-081, N^1,N^10-Bis((S)-2,5-dioxopyrrolidin-3-yl)decanediamide] | 35 |  |  |  | 
Cc1nc2cccc(NC(=O)Cn3cc(CCC(=O)Nc4cccc5c4CN(C4CCC(=O)NC4=O)C5=O)nn3)c2c(=O)n1C1CCC(=O)NC1=O (stereo not drawn) [XS01-127, N-(2-(2,6-Dioxopiperidin-3-yl)-1-oxoisoindolin-4-yl)-3-(1-(2-((3-(2,6-dioxopiperidin-3-yl)-2-methyl-4-oxo-3,4-dihydroquinazolin-5-yl)amino)-2-oxoethyl)-1H-1,2,3-triazol-4-yl)propanamide] | 175 | 228 |  |  | 
CN1C(=O)CCC(N2Cc3c(CCCOCCOCCCc4cccc5c4CN(C4CCC(=O)N(C)C4=O)C5=O)cccc3C2=O)C1=O (stereo not drawn) [SM3-104, 3,3′-(((Ethane-1,2-diylbis(oxy))bis(propane-3,1-diyl))bis(1-oxoisoindoline-4,2-diyl))bis(1-methylpiperidine-2,6-dione)] |  | 92.1 |  |  | 
Cc1nc2cccc(NCc3ccc(CNc4cccc5nc(C)n(C6CCC(=O)NC6=O)c(=O)c45)cc3)c2c(=O)n1C1CCC(=O)NC1=O (stereo not drawn) [MA10-112] | 21.4 | 5.13 |  |  | 
Cc1nc2cccc(C#CCOCCOCCOCC#Cc3cccc4nc(C)n(C5CCC(=O)NC5=O)c(=O)c34)c2c(=O)n1C1CCC(=O)NC1=O (stereo not drawn) [MA10-153, 3,3′-((((Oxybis(ethane-2,1-diyl))bis(oxy))bis(prop-1-yne-3,1-diyl))bis(2-methyl-4-oxoquinazoline-5,3(4H)-diyl))bis(piperidine-2,6-dione)] | 208 | 14.8 |  |  | No Degradation
O=C1CCC(N2Cc3c(C#CCCCC(=O)Nc4cccc5c4CN(C4CCC(=O)NC4=O)C5=O)cccc3C2=O)C(=O)N1 (stereo not drawn) [EC2-108, N,6-bis(2-(2,6-Dioxopiperidin-3-yl)-1-oxoisoindolin-4-yl)hex-5-ynamide] | 79.7 | 85.6 |  |  | 
